Measurements: ChEMBL document CHEMBL1201862, “PubChem BioAssay data set” (2004)
Activity calls are given as the source filed them. For most assays here, no stated cut-off is given here; in the data, actives have a measured IC50 and inactives only a lower limit.

Tests used:
[1] = biological target: Sphingosine 1-phosphate receptor 2 (Homo sapiens, UniProt O95136); assay: Late-stage fluorescence-based dose-response cell-based counterscreen assay to identify agonists of the Sphingosine 1-Phosphate Receptor 3 (S1P3): Sphingosine 1-Phosphate Receptor 2 (S1P2) agonist assay.; type: functional
[2] = biological target: T1, Sphingosine 1-phosphate receptor 4 (Homo sapiens, UniProt O95977); assay: Late-stage fluorescence-based dose-response cell-based counterscreen assay to identify agonists of the Sphingosine 1-Phosphate Receptor 3 (S1P3): Sphingosine 1-Phosphate Receptor 4 (S1P4) agonist assay.; type: functional
T1 sequence (O95977 whole entry): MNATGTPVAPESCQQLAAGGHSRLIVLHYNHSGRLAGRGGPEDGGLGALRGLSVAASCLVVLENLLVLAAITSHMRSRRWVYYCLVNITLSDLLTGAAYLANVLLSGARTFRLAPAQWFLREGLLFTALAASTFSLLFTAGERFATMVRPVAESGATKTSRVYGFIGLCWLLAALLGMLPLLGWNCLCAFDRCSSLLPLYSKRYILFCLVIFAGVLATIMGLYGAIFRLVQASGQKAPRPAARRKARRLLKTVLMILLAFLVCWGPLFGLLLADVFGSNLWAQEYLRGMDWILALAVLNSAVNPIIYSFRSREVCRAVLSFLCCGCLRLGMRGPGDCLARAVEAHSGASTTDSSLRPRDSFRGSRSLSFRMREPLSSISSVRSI

HEK293 = assay: EBV LMP1 TES2 canonical NF-kB signalling blockers – cell-based, HEK293, luciferase, cherry-pick, dose response (AID 588343); type: functional; settings: Homo sapiens
[3] = biological target: Latent membrane protein 1 (Human herpesvirus 4 (strain B95-8), UniProt P03230); assay: LMP1 TES1 pathway selectivity over dsRED control – imaging, HEK293T, dual-color eGFP/dsRED, cherry-picks, selectivity assay for LMP1 NF-kB inhibitor project, dose response (AID 588398); type: functional, cell-based
[4] = biological target: T2, Microphthalmia-associated transcription factor (Homo sapiens, UniProt O75030); assay: reducers of TRPM1 reporter luminescence, concentration series – cell-based, SK-MEL-5, cherry-picked, set 3, MITF inhibitor project, dose response (AID 493073); type: functional;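 further: SK-MEL-5 melanoma cells with luciferase driven by the MITF target TRPM1 promoter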
T2 sequence (O75030 whole entry): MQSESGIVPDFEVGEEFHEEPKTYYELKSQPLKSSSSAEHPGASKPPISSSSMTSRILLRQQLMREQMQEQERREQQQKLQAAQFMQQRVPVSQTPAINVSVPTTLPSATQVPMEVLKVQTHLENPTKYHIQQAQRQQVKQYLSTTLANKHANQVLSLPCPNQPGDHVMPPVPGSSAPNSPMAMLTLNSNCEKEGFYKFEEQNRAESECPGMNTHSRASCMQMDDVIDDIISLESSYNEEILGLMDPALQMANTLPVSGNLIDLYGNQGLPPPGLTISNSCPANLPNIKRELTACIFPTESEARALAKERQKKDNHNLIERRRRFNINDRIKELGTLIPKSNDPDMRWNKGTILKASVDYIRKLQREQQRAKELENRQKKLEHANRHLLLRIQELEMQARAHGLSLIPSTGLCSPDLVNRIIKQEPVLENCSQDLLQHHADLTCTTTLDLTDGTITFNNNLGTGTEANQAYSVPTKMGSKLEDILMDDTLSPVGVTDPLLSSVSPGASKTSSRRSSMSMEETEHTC

[5] = A cytotoxicity screen of small molecule inhibitors of the PhoP region in Salmonella typhi identified in the primary screen. [Related pubchem assays: 1850, 1864, 1985 ]; type: functional
Caspase-3 [6] = biological target: T3, Caspase-3 (Homo sapiens, UniProt P42574); assay: inhibition of recombinant caspase-3 activity – biochemical, luminescence, set 2, selectivity assay for SENP protease inhibitor project, SAR follow-up (AID 588599); type: functional
T3 sequence (P42574 whole entry): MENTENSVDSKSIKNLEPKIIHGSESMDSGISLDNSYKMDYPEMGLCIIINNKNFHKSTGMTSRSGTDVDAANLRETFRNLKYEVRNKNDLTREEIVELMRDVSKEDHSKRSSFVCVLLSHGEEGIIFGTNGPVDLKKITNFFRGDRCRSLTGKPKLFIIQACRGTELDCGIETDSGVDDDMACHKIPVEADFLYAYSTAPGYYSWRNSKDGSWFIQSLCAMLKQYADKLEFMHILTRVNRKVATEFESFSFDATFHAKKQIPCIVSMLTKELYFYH

[7] = biological target: T4, Sentrin-specific protease 8 (Homo sapiens, UniProt Q96LD8); assay: inhibition of sentrin protease 8 – biochemical, luminescence, set 2, SAR follow-up (AID 588601); type: functional
T4 sequence (Q96LD8 whole entry): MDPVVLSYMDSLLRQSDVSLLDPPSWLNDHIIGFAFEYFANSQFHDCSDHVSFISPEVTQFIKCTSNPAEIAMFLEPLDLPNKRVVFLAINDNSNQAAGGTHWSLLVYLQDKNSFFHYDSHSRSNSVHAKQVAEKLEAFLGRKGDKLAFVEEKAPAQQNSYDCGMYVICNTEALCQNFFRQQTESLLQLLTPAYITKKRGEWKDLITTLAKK

[8] = biological target: T5, Sentrin-specific protease 6 (Homo sapiens, UniProt Q9GZR1); assay: SAR Analysis of small molecule inhibitors of Sentrin-specific protease 6 (SENP6) using a Luminescent assay. [Related pubchem assays (depositor defined):AID2582, AID2599]; type: functional
T5 sequence (Q9GZR1 whole entry): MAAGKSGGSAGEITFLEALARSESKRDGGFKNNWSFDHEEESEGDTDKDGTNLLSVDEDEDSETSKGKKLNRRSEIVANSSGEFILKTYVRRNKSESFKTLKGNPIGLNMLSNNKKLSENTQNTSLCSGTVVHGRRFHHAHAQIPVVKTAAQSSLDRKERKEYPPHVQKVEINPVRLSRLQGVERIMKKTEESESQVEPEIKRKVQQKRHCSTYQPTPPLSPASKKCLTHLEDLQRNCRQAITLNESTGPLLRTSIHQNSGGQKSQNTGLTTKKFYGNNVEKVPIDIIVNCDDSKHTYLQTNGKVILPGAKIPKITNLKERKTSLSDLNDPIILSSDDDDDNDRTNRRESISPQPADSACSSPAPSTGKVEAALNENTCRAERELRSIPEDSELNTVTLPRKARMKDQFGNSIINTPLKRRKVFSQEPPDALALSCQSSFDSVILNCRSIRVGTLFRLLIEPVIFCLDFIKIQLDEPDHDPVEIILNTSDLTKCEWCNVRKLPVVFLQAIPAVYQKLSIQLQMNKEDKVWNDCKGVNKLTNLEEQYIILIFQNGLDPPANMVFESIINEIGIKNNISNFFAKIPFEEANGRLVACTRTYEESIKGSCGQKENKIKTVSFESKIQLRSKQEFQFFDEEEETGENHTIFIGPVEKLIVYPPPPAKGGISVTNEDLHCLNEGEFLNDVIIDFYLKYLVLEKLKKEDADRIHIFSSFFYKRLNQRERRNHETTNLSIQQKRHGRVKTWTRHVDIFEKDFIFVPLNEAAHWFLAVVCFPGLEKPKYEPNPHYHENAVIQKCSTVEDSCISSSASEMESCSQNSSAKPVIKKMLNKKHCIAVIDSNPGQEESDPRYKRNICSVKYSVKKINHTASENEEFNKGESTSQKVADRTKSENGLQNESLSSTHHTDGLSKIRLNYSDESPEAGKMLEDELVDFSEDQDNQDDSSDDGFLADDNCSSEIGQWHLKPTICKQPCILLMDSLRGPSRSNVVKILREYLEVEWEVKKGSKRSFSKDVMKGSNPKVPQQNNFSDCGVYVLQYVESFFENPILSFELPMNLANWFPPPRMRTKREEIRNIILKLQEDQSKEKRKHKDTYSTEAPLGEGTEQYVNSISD

[9] = biological target: T6, Sentrin-specific protease 7 (Homo sapiens, UniProt Q9BQF6); assay: inhibition of human SENP7 cleavage activity – biochemical, luminescence, SAR follow-up (AID 504497); type: functional
T6 sequence (Q9BQF6 whole entry): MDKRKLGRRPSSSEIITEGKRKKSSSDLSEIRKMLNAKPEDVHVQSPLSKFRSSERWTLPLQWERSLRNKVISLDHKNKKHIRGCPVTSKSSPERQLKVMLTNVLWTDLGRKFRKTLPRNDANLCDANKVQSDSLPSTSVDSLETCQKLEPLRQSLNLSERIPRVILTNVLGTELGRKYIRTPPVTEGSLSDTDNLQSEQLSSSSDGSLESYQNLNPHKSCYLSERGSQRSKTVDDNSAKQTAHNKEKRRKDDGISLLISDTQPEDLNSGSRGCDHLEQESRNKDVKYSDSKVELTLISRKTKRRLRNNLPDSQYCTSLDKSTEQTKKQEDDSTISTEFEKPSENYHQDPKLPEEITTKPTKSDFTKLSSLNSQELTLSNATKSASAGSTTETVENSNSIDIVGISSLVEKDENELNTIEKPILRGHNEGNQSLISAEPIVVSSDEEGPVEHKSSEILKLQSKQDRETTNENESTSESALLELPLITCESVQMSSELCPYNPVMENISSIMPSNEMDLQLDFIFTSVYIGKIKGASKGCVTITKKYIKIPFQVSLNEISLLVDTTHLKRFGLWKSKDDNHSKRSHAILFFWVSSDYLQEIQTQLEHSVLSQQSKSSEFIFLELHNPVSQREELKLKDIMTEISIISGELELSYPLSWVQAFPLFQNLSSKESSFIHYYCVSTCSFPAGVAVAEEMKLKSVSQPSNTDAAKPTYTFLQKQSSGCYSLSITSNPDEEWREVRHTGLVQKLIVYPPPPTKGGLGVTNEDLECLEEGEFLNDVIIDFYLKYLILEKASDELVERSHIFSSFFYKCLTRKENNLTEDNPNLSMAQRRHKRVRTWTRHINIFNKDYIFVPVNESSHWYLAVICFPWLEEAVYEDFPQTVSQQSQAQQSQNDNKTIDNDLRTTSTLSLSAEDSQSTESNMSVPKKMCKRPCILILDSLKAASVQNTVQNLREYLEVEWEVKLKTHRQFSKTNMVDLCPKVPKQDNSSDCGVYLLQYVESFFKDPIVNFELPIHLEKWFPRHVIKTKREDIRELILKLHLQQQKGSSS

[10] = biological target: T6, Sentrin-specific protease 7; assay: inhibition of human SENP7 cleavage activity – biochemical, luminescence, set 2, SAR follow-up (AID 588600); type: functional
Caspase-3 [11] = biological target: T3, Caspase-3; assay: SAR Analysis of small molecule inhibitors of Sentrin-specific proteases (SENPs) using a Caspase-3 Selectivity assay. [Related pubchem assays (depositor defined):AID2540, AID2599, AID434973, AID489001]; type: functional
[12] = biological target: T4, Sentrin-specific protease 8; assay: inhibition of human SENP8 cleavage activity – biochemical, luminescence, SAR follow-up (AID 504501); type: functional

Chain of Sphingosine 1-phosphate receptor 2 (O95136 whole entry): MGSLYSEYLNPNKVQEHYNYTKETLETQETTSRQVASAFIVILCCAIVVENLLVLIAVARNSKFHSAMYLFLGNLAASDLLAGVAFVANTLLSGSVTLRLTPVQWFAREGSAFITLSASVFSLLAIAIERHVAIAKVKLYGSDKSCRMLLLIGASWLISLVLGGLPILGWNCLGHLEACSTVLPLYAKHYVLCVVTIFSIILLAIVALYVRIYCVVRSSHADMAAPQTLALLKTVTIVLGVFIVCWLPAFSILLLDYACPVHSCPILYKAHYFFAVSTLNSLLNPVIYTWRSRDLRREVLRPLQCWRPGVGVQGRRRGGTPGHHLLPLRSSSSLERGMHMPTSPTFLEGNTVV
Chain of Latent membrane protein 1 (P03230 whole entry): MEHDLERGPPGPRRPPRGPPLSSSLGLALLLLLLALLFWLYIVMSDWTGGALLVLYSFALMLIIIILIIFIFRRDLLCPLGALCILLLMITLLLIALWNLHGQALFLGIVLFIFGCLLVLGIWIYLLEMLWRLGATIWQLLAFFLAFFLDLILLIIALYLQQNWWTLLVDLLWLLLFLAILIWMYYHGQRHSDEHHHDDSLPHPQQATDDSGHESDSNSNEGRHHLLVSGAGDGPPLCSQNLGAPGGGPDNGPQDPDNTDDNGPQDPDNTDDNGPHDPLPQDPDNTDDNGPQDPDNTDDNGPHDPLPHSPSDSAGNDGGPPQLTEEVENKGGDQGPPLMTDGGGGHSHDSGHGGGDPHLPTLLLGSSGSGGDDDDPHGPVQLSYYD

O=C(NC1CCCCC1)c1cc(C2CC2)on1
EC50 [1]: > 50 µM (inactive) | EC50 [2]: > 50 µM (inactive)

Cc1cc(NCCCn2ccnc2)n2ncc(-c3ccccc3)c2n1
AC50 (HEK293): 2.56 µM (active) | AC50 [3]: 206 µM (active) | AC50 [4]: 11 µM (active) | EC50 [5]: > 50 µM (active)

Fc1ccc(-c2noc(/C=C/c3ccccc3)n2)cc1
IC50 (Caspase-3 [6]): 20.5 µM (active) | IC50 [7]: 2.98 µM (active) | IC50 [8]: > 99 µM (inactive) | IC50 [9]: 8.8 µM (active) | IC50 [10]: 3.38 µM (active) | IC50 (Caspase-3 [11]): 18 µM (active) | IC50 [12]: > 99 µM (inactive)
